Reference: patent US20080014278A1, “METAL-CONTAINING FORMULATIONS AND METHODS OF USE” (priority 2006, published 2008)

Columns and labels:
Prot. mirabilis = experiment: Minimal bactericidal concentration (MBC) assay; type: cell-based, Proteus mirabilis; settings: Prot. mirabilis NP405
Protocol: (§1) Minimal bactericidal concentration (MBC) assay—Overnight-grown MIC plates, prepared as described in Example 16, were evaluated to determine the MIC. Culture was then sampled from wells at and near the MIC using sterile inoculating loops, and transferred to fresh MHA plates to determine if viable bacteria remained. […] The MBC was determined as the well in the MIC plate which contained the lowest concentration of silver yielding no bacterial growth on the MHA plate.

B. multivorans = experiment: Minimal bactericidal concentration (MBC) assay; type: cell-based, Burkholderia multivorans
Protocol: as §1

Burkholderia multivorans = experiment: MIC assay (microdilution); type: cell-based
Burkholderia dolosa = experiment: MIC assay (microdilution); type: cell-based
B dolosa = experiment: Minimal bactericidal concentration (MBC) assay; type: cell-based, Burkholderia dolosa
Protocol: as §1

Pseudomonas aeruginosa = experiment: MIC assay (microdilution); type: cell-based
E. coli = experiment: Minimal bactericidal concentration (MBC) assay; type: cell-based, Escherichia coli
Protocol: as §1

Proteus mirabilis = experiment: MIC assay (microdilution); type: cell-based; settings: Prot. mirabilis NP405
Strep. pyogenes = experiment: Minimal bactericidal concentration (MBC) assay; type: cell-based, Streptococcus pyogenes
Protocol: as §1

[1] = test system: Mycobacterium tuberculosis H37Ra; type: cell-based
Citrobacter freundii = experiment: MIC assay (microdilution); type: cell-based; settings: C. freundii NP410
[2] = test system: Staphylococcus epidermidis; experiment: MIC assay (microdilution); type: cell-based
Streptococcus pyogenes = experiment: MIC assay (microdilution); type: cell-based
C. freundii = experiment: Minimal bactericidal concentration (MBC) assay; type: cell-based, Citrobacter freundii; settings: C. freundii NP410
Protocol: as §1

K. pneumoniae = experiment: Minimal bactericidal concentration (MBC) assay; type: cell-based, Klebsiella pneumoniae
Protocol: as §1

Enterobacter cloacae = experiment: MIC assay (microdilution); type: cell-based; settings: Enterobacter cloacae
Serratia marcescens = experiment: MIC assay (microdilution); type: cell-based
Staph. aureus = experiment: Minimal bactericidal concentration (MBC) assay; type: cell-based, Staphylococcus aureus
Protocol: as §1

Klebsiella pneumoniae = experiment: MIC assay (microdilution); type: cell-based
Staph epidermidis = experiment: Minimal bactericidal concentration (MBC) assay; type: cell-based, Staphylococcus epidermidis
Protocol: as §1

Staphylococcus aureus = experiment: MIC assay (microdilution); type: cell-based
Ps. aeruginosa = experiment: Minimal bactericidal concentration (MBC) assay; type: cell-based, Pseudomonas aeruginosa
Protocol: as §1

Ser. marcescens = experiment: Minimal bactericidal concentration (MBC) assay; type: cell-based, Serratia marcescens
Protocol: as §1

Escherichia coli = experiment: MIC assay (microdilution); type: cell-based
Streptococcus pneumoniae = experiment: MIC assay (microdilution); type: cell-based; settings: lactate solutions, nanocrystalline silver: range for 12 samples
[3] = K. pneumoniae NP403, second entry
[4] = Ser. marcescens NP402, second entry
[5] = Ser. marcescens NP408, second entry

O=[N+]([O-])[O-].[Ag+] [AgNO3, silver nitrate]
2.5 μg/ml silver: MIC [1]
21 parts silver per million: MBC (Strep. pyogenes; Strep. pyogenes NP304) | MBC (Strep. pyogenes; Strep. pyogenes NP306)
3 parts silver per million: MBC (B. multivorans; B. multivorans B1) | MBC (B. multivorans; B. multivorans B2) | MBC (B. multivorans; B. multivorans B4) | MIC (Burkholderia multivorans; B. multivorans B1) | MIC (Burkholderia multivorans; B. multivorans B2) | MBC (B dolosa; B dolosa A3) | MIC (Citrobacter freundii) | MIC ([2]; Staph epidermidis 12228) | MIC ([2]; Staph epidermidis NP136) | MIC (Streptococcus pyogenes; Strep. pyogenes NP303) | MBC (C. freundii) | MBC (K. pneumoniae; K. pneumoniae NP401) | MBC (K. pneumoniae; [3]) | MIC (Klebsiella pneumoniae; K. pneumoniae NP401) | MBC (Staph epidermidis; Staph epidermidis 12228) | MBC (Staph epidermidis; Staph epidermidis NP136) | MIC (Staphylococcus aureus; Staph. aureus 700699) | MBC (Ps. aeruginosa; Ps. aeruginosa 27317) | MBC (Ps. aeruginosa; Ps. aeruginosa NP201) | MBC (Ps. aeruginosa; Ps. aeruginosa NP204)
6 µg/mL: MIC (Serratia marcescens; Serratia marcescens, aerobic +)
11 ppm: MIC (Staphylococcus aureus; Staph aureus NP101, Water/Lecithin) | MIC (Staphylococcus aureus; Staph aureus NP101, Water/PVA) | MIC (Staphylococcus aureus; Staph aureus NP102, Water/Lecithin) | MIC (Staphylococcus aureus; Staph aureus NP102, Water/PVA) | MIC (Staphylococcus aureus; Staph aureus NP103, Water/Lecithin) | MIC (Staphylococcus aureus; Staph aureus NP103, Water/PVA)
25 µg/mL: MIC (Enterobacter cloacae; aerobic − (anaerobic))
21 µg/mL: MIC (Streptococcus pneumoniae; S. pneumo (clin 315))
5 µg/mL: MIC (Streptococcus pyogenes; lactate solutions, S. pyog (clin. 304), nanocrystalline silver: range for 12 samples) | MIC (Staphylococcus aureus; lactate solutions, S. aureus (clin.), nanocrystalline silver: range for 12 samples)
3 ppm: MIC (Pseudomonas aeruginosa; P. aeruginosa NP212, formulation type Water/Lecithin) | MIC (Pseudomonas aeruginosa; P. aeruginosa NP212, formulation type Water/PVA) | MIC (Pseudomonas aeruginosa; P. aeruginosa NP214, Water/PVA)
11 parts silver per million: MIC (Serratia marcescens; [5]) | MBC (Staph. aureus; Staph. aureus NP101) | MBC (Ser. marcescens; [5])
2 ppm: MIC (Pseudomonas aeruginosa; P. aeruginosa NP212, formulation type Lactate)
1 parts silver per million: MIC (Pseudomonas aeruginosa; Ps. aeruginosa 9027) | MIC (Pseudomonas aeruginosa; Ps. aeruginosa NP201) | MIC (Pseudomonas aeruginosa; Ps. aeruginosa NP204) | MIC (Pseudomonas aeruginosa; Ps. aeruginosa NP206) | MBC (E. coli; E. coli NP412) | MBC (K. pneumoniae; K. pneumoniae NP406) | MIC (Klebsiella pneumoniae; K. pneumoniae NP406) | MBC (Ps. aeruginosa; Ps. aeruginosa NP206) | MIC (Escherichia coli; E. coli 43745) | MIC (Escherichia coli; E. coli NP412)
10 parts silver per million: MBC (Strep. pyogenes; Strep. pyogenes NP303)
2 parts silver per million: MIC (Burkholderia multivorans; B. multivorans B4) | MIC (Burkholderia dolosa; B dolosa A3) | MIC (Burkholderia dolosa; B dolosa A4) | MBC (B dolosa; B dolosa A4) | MIC (Pseudomonas aeruginosa; Ps. aeruginosa 27317)
11 µg/mL: MIC (Staphylococcus aureus; lactate solutions, S. aureus (ATCC), nanocrystalline silver: range for 12 samples) | MIC (Streptococcus pneumoniae; S. pneumo (clin 314))
9 ppm: MIC (Staphylococcus aureus; Staph aureus NP101, Lactate) | MIC (Staphylococcus aureus; Staph aureus NP102, Lactate) | MIC (Staphylococcus aureus; Staph aureus NP103, Lactate)
0.4 parts silver per million: MBC (E. coli; E. coli 8739) | MBC (E. coli; E. coli 43745) | MIC (Escherichia coli; E. coli 8739)
13 µg/mL: MIC (Enterobacter cloacae; aerobic +) | MIC (Serratia marcescens; Serratia marcescens, aerobic − (anaerobic))
1 ppm: MIC (Pseudomonas aeruginosa; P. aeruginosa NP213, Lactate) | MIC (Pseudomonas aeruginosa; P. aeruginosa NP213, Water/Lecithin) | MIC (Pseudomonas aeruginosa; P. aeruginosa NP213, Water/PVA) | MIC (Pseudomonas aeruginosa; P. aeruginosa NP214, Lactate) | MIC (Pseudomonas aeruginosa; P. aeruginosa NP214, Water/Lecithin)
6 parts silver per million: MIC (Proteus mirabilis) | MIC (Streptococcus pyogenes; Strep. pyogenes NP304) | MIC (Streptococcus pyogenes; Strep. pyogenes NP306) | MBC (K. pneumoniae; K. pneumoniae NP403) | MIC (Serratia marcescens; Ser. marcescens NP402) | MIC (Serratia marcescens; [4]) | MIC (Serratia marcescens; Ser. marcescens NP408) | MBC (Staph. aureus; Staph. aureus 6538) | MBC (Staph. aureus; Staph. aureus 700699) | MBC (Staph. aureus; Staph. aureus NP102) | MBC (Staph. aureus; Staph. aureus NP103) | MIC (Klebsiella pneumoniae; K. pneumoniae NP403) | MIC (Klebsiella pneumoniae; [3]) | MIC (Staphylococcus aureus; Staph. aureus 6538) | MIC (Staphylococcus aureus; Staph. aureus NP101) | MIC (Staphylococcus aureus; Staph. aureus NP102) | MIC (Staphylococcus aureus; Staph. aureus NP103) | MBC (Ser. marcescens; Ser. marcescens NP402) | MBC (Ser. marcescens; [4]) | MBC (Ser. marcescens; Ser. marcescens NP408)
13 parts silver per million: MBC (Prot. mirabilis)
3 µg/mL: MIC (Pseudomonas aeruginosa; lactate solutions, P. aerug (ATCC), nanocrystalline silver: range for 12 samples) | MIC (Pseudomonas aeruginosa; lactate solutions, P. aerug. (clin.), nanocrystalline silver: range for 12 samples) | MIC ([2]; lactate solutions, S. epiderm (ATCC), nanocrystalline silver: range for 12 samples) | MIC (Streptococcus pyogenes; lactate solutions, S. pyog (clin. 303), nanocrystalline silver: range for 12 samples) | MIC (Klebsiella pneumoniae; Klebsiella pneumoniae, aerobic +) | MIC (Klebsiella pneumoniae; Klebsiella pneumoniae, aerobic − (anaerobic)) | MIC (Escherichia coli; lactate solutions, E. coli (ATCC), nanocrystalline silver: range for 12 samples)
